Results reported in patent publication US20050137251A1, “Dexanabinol and dexanabinol analogs regulate inflammation related genes” (priority 2002, published 2005).

Legend:
PGE2 secretion = assay: Inhibition of PGE2 secretion in LPS activated mouse macrophages (RAW 264.7); type: cell-based; details: RAW264.7, LPS activated RAW 264.7 cells, same experimental setup, known anti-inflammatory drugs
Procedure: The assay reproduces in vitro the true enzymatic activity, the test compounds, up to 10 μM, were preincubated for 5 minutes with purified COX-2, then the natural substrate AA was added and the reaction was allowed to proceed for 2 minutes. HCl was used to stop the enzyme catalysis and saturated stannous chloride was added to stabilize the PGH2 product into PGF2α.
RAW 264.7 macrophages, a mouse cell line (ATCC # TIB 71), were grown in Dulbecco's modified Eagle's medium (DMEM) with 4 mM L-glutamine adjusted to contain 1.5 g/L sodium bicarbonate, 4.5 g/L glucose, and 10% heat inactivated fetal bovine serum. Cells were grown in tissue culture flasks and seeded at appropriate density into 24 wells tissue culture plates. 0.5×10^6 Raw cells in one milliliter were stimulated with 2 μg/ml Lipopolysaccharide E. coli 055:B5 (DIFCO Laboratories). The mouse macrophages were pre-treated for one hour with controls or 10 μM of dexanabinol and its analogs, unless indicated otherwise, and later on activated with LPS.

[1] = test system: carrageenan induced paw edema; assay: Carrageenan induced paw edema; type: in vivo, mice; details: 3 hours after carrageenan
[2] = test system: ConA injured liver (ALT release); assay: ALT release from ConA injured liver; type: in vivo, mice; details: PRS-211,092 5 mg/kg, FK-506 1 mg/kg
Procedure: (§1) Each experimental group contained at least twenty BALB/c inbred female mice (25 g average weight, Harlan, Israel). The negative control group was composed of mice injected with saline instead of ConA. The injection of ConA (Sigma) was done i.v. at the base of the tail at the dose of 15 mg/kg in saline. The treatments were injected i.v. at 5 mg/kg, 30 minutes before ConA injection, unless indicated otherwise. Compounds were dissolved in cremophor:ethanol, further diluted with saline before injection, and vehicle only was included as an internal control. Analysis was performed at predetermined time points following ConA injection.
Impact of treatment was monitored at three levels. First, blood samples (200-400 μl) were collected at predetermined time points after ConA injection, using retro-orbital puncture. After short centrifugation (5000 rpm for 2 min) serum was recovered and stored at −80° C. until further use for determination of cytokines concentrations by ELISA and aminotransferase release from the liver as a marker for liver injury.
Alanine aminotransferase (ALT) is an enzyme found mainly in the liver and it is measured to determine whether the liver is damaged or diseased in a variety of human conditions, especially hepatitis and cirrhosis. The level of its release into the bloodstream linearly correlates with the severity of the liver injury and thus it can be used both for diagnosis purposes and to monitor the efficiency of a treatment. The time course of plasma ALT release after ConA injection is known from the literature to peak at eight hours. […] We used this assay to preliminarily assess the temporal window of PRS-211,092 efficiency and the compound was administered either 30 or 60 minutes after induction of injury. […] FK-506 was used as positive control and at the dose of 1 mg/kg, it reduced ALT concentrations by 92%, 93% and 86% when injected at the three previously described time points. Thus, the test compound has an important beneficial impact on liver injury as assessed by the reduction of ALT, a robust marker of the liver injury. […]

SAA-3 gene expression = assay: SAA-3 liver gene expression (acute phase response), ConA model; type: in vivo, mice; details: 1 mg/kg, on average at both time points of four and eight hours
Procedure: (§2) II reverse transcriptase (Life Technologies).
as §1
(§3) The acute phase response is an innate body defense seen during acute inflammation, infection and trauma, which involves the altered production of certain blood proteins termed acute phase proteins (APPs). As previously stated activated macrophages and other leukocytes release pro-inflammatory cytokines such as TNF-α, IL-1 and IL-6. These cytokines in turn stimulate hepatocytes to synthesize and secrete acute phase proteins such as C-reactive protein (CRP), mannose-binding lectin (MBL), haptoglobin and serum amyloid A (SAA). Measurement of acute phase protein level is used to monitor the severity of the innate response and thus predict the prognosis of the disease. […]

[3] = test system: haptoglobin gene expression; assay: Haptoglobin liver gene expression (acute phase response), ConA model; type: in vivo, mice; details: 1 mg/kg, on average at both time points of four and eight hours
Procedure: as §2, §1, §3

recombinant COX-2 = recombinant COX-2 (Homo sapiens, UniProt P35354); assay: In vitro enzymatic activity of recombinant COX-2 (PGF2α EIA); type: biochemical
Sequence of recombinant COX-2 (P35354 18-604): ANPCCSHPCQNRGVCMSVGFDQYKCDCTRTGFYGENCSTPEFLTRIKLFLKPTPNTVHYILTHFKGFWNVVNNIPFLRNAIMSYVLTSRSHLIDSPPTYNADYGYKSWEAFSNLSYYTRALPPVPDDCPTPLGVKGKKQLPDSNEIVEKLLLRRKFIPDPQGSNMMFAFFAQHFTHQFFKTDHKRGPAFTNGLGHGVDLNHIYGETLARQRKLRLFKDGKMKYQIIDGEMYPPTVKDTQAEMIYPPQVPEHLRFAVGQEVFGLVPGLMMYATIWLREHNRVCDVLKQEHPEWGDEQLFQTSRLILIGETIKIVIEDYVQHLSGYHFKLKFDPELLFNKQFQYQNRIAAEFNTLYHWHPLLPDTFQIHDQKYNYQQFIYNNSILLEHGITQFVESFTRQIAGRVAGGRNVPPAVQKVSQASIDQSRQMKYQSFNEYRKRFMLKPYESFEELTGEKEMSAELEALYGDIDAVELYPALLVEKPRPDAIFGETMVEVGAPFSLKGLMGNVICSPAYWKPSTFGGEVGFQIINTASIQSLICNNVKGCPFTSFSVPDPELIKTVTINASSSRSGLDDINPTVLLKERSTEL

SMILES | IC50 (PGE2 secretion) [nM] | Reduction in paw thickness ([1]; 0.1 mg/kg i.p.) [%] | Reduction in paw thickness ([1]; 0.25 mg/kg i.p.) [%] | Reduction in paw thickness ([1]; 0.5 mg/kg i.p.) [%] | also measured
Cc1ccc(-c2cc(C(F)(F)F)nn2-c2ccc(S(N)(=O)=O)cc2)cc1 [Celecoxib] | 5 | 24 | 28 | 33 | 
C[C@@H]1C[C@H]2[C@@H]3CCC4=CC(=O)C=C[C@]4(C)[C@@]3(F)[C@@H](O)C[C@]2(C)[C@@]1(O)C(=O)CO [Dexamethasone] |  | 26 | 31 | 33 | 
C=CC[C@@H]1/C=C(\C)C[C@H](C)C[C@H](OC)[C@H]2O[C@@](O)(C(=O)C(=O)N3CCCC[C@H]3C(=O)O[C@H](/C(C)=C/[C@@H]3CC[C@@H](O)[C@H](OC)C3)[C@H](C)[C@@H](O)CC1=O)[C@H](C)C[C@@H]2OC [FK-506] |  |  |  |  | Reduction of ALT concentrations ([2]; administered 30 minutes after induction of injury): 93%; Reduction of ALT concentrations ([2]; administered 30 minutes before ConA, 8 hours after ConA): 92%; Reduction of ALT concentrations ([2]; administered 60 minutes after induction of injury): 86%; Reduction in gene expression of SAA-3 (SAA-3 gene expression): 97%; Reduction in gene expression of haptoglobin [3]: 78%
CS(=O)(=O)Nc1ccc([N+](=O)[O-])cc1OC1CCCCC1 [NS-398] | 100 |  |  |  | 
CS(=O)(=O)c1ccc(C2=C(c3ccccc3)C(=O)OC2)cc1 [Rofecoxib, reference compound] | 100 |  |  |  | Inhibition of COX-2 enzymatic activity (recombinant COX-2): strongly inhibited
